SMILES strings stand for the structures. Activity calls are given as the source filed them. The calls are words filed in the database; no cut-off is given here.

The nature of series [1]: Cytotoxicity against human 293T/ACE2 cells assessed as reduction in cell growth measured after 48 hrs by MTT assay. The format is functional. For orientation: Tetrazolium assays rely on reduction of a dye to a coloured formazan, in cell work by metabolically active cells.
Series [2] has as its target Spike glycoprotein/Angiotensin-converting enzyme 2 (Severe acute respiratory syndrome coronavirus 2) (UniProt Q9BYF1+P0DTC2). Kind of series: Inhibition of SARS-COV-2 S1 protein/human ACE2 receptor interaction at 20 uM by co-immunoprecipitation assay.
For series [3], the system named is SARS-CoV-2. Kind of series: Antiviral activity against luciferase-expressing pseudovirus encoding SARS-CoV-2 Omicron expressing S protein infected in human 293T/ACE2 cells assessed as reduction of viral growth measured after 48 hrs by luciferase assay. The settings on record: Severe acute respiratory syndrome coronavirus 2, 293T/ACE2, 48 h. In kind it is functional, organism-based.

A short description of series [4]: Selectivity index, ratio of CC50 for human 293T/ACE2 cells to EC50 for SARS-CoV-2 Omicron. The settings on record: read-out: Ratio CC50/EC50. In kind it is toxicity.
The nature of series [5]: Metabolic stability in rat liver microsomes assessed as half life measured upto 250 mins by LC-MS/MS analysis. In kind it is ADME, Microsome. The settings on record: 4.167 h. On the technique in general: Liver microsomes are vesicles of endoplasmic reticulum, rich in cytochrome P450 enzymes.
The subject of series [6] is SARS-CoV-2. Kind of series: Antiviral activity against SARS-COV-2 Omicron expressing S protein and co-expressing EGFP infected in African green monkey Vero E6 cells assessed as inhibition of S protein mediated membrane fusion at 10 uM incubated of 30 mins measured after 24 hrs by inverted fluorescence microscopic analysis. The format is functional, organism-based. The settings on record: Severe acute respiratory syndrome coronavirus 2, time 24.5 hrs.

The nature of series [7]: Stability of compound in rat plasma assessed as change in retention time of parent compound incubated for 180 mins by LC-MS/MS analysis. In kind it is ADME, cell-free. The following applies: 3 h.
Series [8] deals with SARS-CoV-2. Kind of series: Antiviral activity against luciferase-expressing pseudovirus encoding SARS-CoV-2 Omicron expressing S protein infected in human 293T/ACE2 cells assessed as reduction of viral growth at 0.078 to 10 uM measured after 48 hrs by luciferase assay. In kind it is functional, organism-based. The following applies: Severe acute respiratory syndrome coronavirus 2, dose 0.078-10 µM.

Series [9] concerns the target Spike glycoprotein (Severe acute respiratory syndrome coronavirus 2, UniProt P0DTC2). Kind of series: Binding affinity to C-terminal 6His-tagged SARS-COV-2 recombinant S protein (Val16 to Arg685 residues) expressed in mammalian expression system assessed as dissociation constant by SPR analysis.
For series [10], the system named is Severe acute respiratory syndrome coronavirus 2. Kind of series: Inhibition of 6-helical bundle formation in SARS-CoV-2 Spike protein HR1/HR2 domains in presence of HR-1P and HR2P at 20 uM incubated for 30 mins by circular dichroism spectroscopy assay. (CD spectra are sensitive to the conformation of chiral molecules.)
Series [11] can be described thus: Metabolic stability in rat liver microsomes assessed as intrinsic clearance measured upto 250 mins by LC-MS/MS analysis. The format is ADME, Microsome. The settings on record: 4.167 h.
Series [12] has as its system SARS-CoV-2. Kind of series: Antiviral activity against luciferase-expressing pseudovirus encoding SARS-CoV-2 Omicron S/HIV infected in human 293T/ACE2 cells assessed as reduction of viral growth at 10 uM measured after 48 hrs by luciferase assay relative to control. Details: scale not given: the % may be the effect or the level left. The format is functional, Severe acute respiratory syndrome coronavirus 2.

Series [13] concerns SARS-CoV-2. Kind of series: Antiviral activity against vesicular stomatitis virus glycoprotein expressing pseudovirus encoding SARS-CoV-2 infected in human 293T/ACE2 cells assessed as reduction of viral growth at 0.078 to 10 uM measured after 48 hrs by luciferase assay. The format is functional, organism-based. The settings on record: Severe acute respiratory syndrome coronavirus 2, dose 0.078-10 µM.

Regarding `C=C(C)[C@@H]1CC[C@]2(C(=O)NCc3ccc4ccccc4c3)CC[C@]3(C)[C@H](CC[C@@H]4[C@@]5(C)CC[C@H](O[C@@H]6O[C@H](CO)[C@@H](O[C@@H]7O[C@@H](C)[C@H](O)[C@@H](O)[C@H]7O)[C@H](O)[C@H]6O[C@@H]6O[C@@H](C)[C@H](O)[C@@H](O)[C@H]6O)C(C)(C)[C@@H]5CC[C@]43C)[C@@H]12`, the cytotoxic concentration (CC50) in [1] was 167 µM. The inhibition entry in [2] was “inactive”. Moreover, the EC50 in [3] is 2.67 µM. In series [4], the selectivity ratio is 62.7.
As to `C=C(C)[C@@H]1CC[C@]2(C(=O)Nc3ccc4ccccc4c3)CC[C@]3(C)[C@H](CC[C@@H]4[C@@]5(C)CC[C@H](O[C@@H]6O[C@H](CO)[C@@H](O[C@@H]7O[C@@H](C)[C@H](O)[C@@H](O)[C@H]7O)[C@H](O)[C@H]6O[C@@H]6O[C@@H](C)[C@H](O)[C@@H](O)[C@H]6O)C(C)(C)[C@@H]5CC[C@]43C)[C@@H]12`, in series [5], the t1/2 is given as 169.21 min. Besides, the outcome in [6] was Active. In series [7], the Stability entry is “Stable”. Also, the CC50 in [1] turned out to be 60.3 µM. Further, the inhibition result in series [2] and in series [10] was “inactive” in each case. In addition, the EC50 in [3] was determined as 0.82 µM. The Activity result in [8] is “Dose-Dependent Effect”; in series [12], 90%. For the same compound, the selectivity ratio in [4] stood at 73.6. The Kd in series [9] amounted to 3.26 µM. The CLH in series [11] turned out to be 1.15 µL/min/mg. Further, the outcome in [13] was inactive.
In the case of `C=C(C)[C@@H]1CC[C@]2(C(=O)Nc3ccccc3OC)CC[C@]3(C)[C@H](CC[C@@H]4[C@@]5(C)CC[C@H](O[C@@H]6O[C@H](CO)[C@@H](O[C@@H]7O[C@@H](C)[C@H](O)[C@@H](O)[C@H]7O)[C@H](O)[C@H]6O[C@@H]6O[C@@H](C)[C@H](O)[C@@H](O)[C@H]6O)C(C)(C)[C@@H]5CC[C@]43C)[C@@H]12`, in series [1], the CC50 came to 83.2 µM. The EC50 in series [3] was 6.11 µM. In series [4], the selectivity ratio amounted to 13.6.
Regarding `C=C(C)[C@@H]1CC[C@]2(C(=O)N(C)c3ccccc3)CC[C@]3(C)[C@H](CC[C@@H]4[C@@]5(C)CC[C@H](O[C@@H]6O[C@H](CO)[C@@H](O[C@@H]7O[C@@H](C)[C@H](O)[C@@H](O)[C@H]7O)[C@H](O)[C@H]6O[C@@H]6O[C@@H](C)[C@H](O)[C@@H](O)[C@H]6O)C(C)(C)[C@@H]5CC[C@]43C)[C@@H]12`, the CC50 in [1] worked out at 69.5 µM. In addition, the EC50 in [3] worked out at 5.06 µM. Also, the selectivity ratio in series [4] was 13.7.
For `C=C(C)[C@@H]1CC[C@]2(C(=O)Nc3ccccc3)CC[C@]3(C)[C@H](CC[C@@H]4[C@@]5(C)CC[C@H](O[C@@H]6O[C@H](CO)[C@@H](O[C@@H]7O[C@@H](C)[C@H](O)[C@@H](O)[C@H]7O)[C@H](O)[C@H]6O[C@@H]6O[C@@H](C)[C@H](O)[C@@H](O)[C@H]6O)C(C)(C)[C@@H]5CC[C@]43C)[C@@H]12`, the CC50 in [1] was above 200 µM. Also, the inhibition result in series [2] is “inactive”. Also, the EC50 in series [3] was determined as 12.5 µM. In series [4], the selectivity ratio is above 16.
As to `C=C(C)[C@@H]1CC[C@]2(C(=O)NCCc3ccccc3)CC[C@]3(C)[C@H](CC[C@@H]4[C@@]5(C)CC[C@H](O[C@@H]6O[C@H](CO)[C@@H](O[C@@H]7O[C@@H](C)[C@H](O)[C@@H](O)[C@H]7O)[C@H](O)[C@H]6O[C@@H]6O[C@@H](C)[C@H](O)[C@@H](O)[C@H]6O)C(C)(C)[C@@H]5CC[C@]43C)[C@@H]12`, the CC50 in series [1] was found to be 226 µM. In addition, the EC50 in series [3] worked out at 8.47 µM. Besides, the selectivity ratio in series [4] worked out at 26.7.
Taken in the same sequence, the figures for `C=C(C)[C@@H]1CC[C@]2(C(=O)NOc3ccccc3)CC[C@]3(C)[C@H](CC[C@@H]4[C@@]5(C)CC[C@H](O[C@@H]6O[C@H](CO)[C@@H](O[C@@H]7O[C@@H](C)[C@H](O)[C@@H](O)[C@H]7O)[C@H](O)[C@H]6O[C@@H]6O[C@@H](C)[C@H](O)[C@@H](O)[C@H]6O)C(C)(C)[C@@H]5CC[C@]43C)[C@@H]12` were 116 µM, 9.88 µM and 11.7.
`C=C(C)[C@@H]1CC[C@]2(C(=O)Nc3ccc4ncccc4c3)CC[C@]3(C)[C@H](CC[C@@H]4[C@@]5(C)CC[C@H](O[C@@H]6O[C@H](CO)[C@@H](O[C@@H]7O[C@@H](C)[C@H](O)[C@@H](O)[C@H]7O)[C@H](O)[C@H]6O[C@@H]6O[C@@H](C)[C@H](O)[C@@H](O)[C@H]6O)C(C)(C)[C@@H]5CC[C@]43C)[C@@H]12`: the CC50 in series [1] was 69.6 µM. The concentration for a half-maximal effect (EC50) in series [3] was 8.43 µM. Further, the selectivity ratio in series [4] is 8.25.
Taken in the same sequence, the figures for `C=C(C)[C@@H]1CC[C@]2(C(=O)Nc3ccc(-c4ccccc4)cc3)CC[C@]3(C)[C@H](CC[C@@H]4[C@@]5(C)CC[C@H](O[C@@H]6O[C@H](CO)[C@@H](O[C@@H]7O[C@@H](C)[C@H](O)[C@@H](O)[C@H]7O)[C@H](O)[C@H]6O[C@@H]6O[C@@H](C)[C@H](O)[C@@H](O)[C@H]6O)C(C)(C)[C@@H]5CC[C@]43C)[C@@H]12` were 100 µM, 8.46 µM and 11.9.
In the case of `C=C(C)[C@@H]1CC[C@]2(C(=O)Nc3ccc(Cl)cc3)CC[C@]3(C)[C@H](CC[C@@H]4[C@@]5(C)CC[C@H](O[C@@H]6O[C@H](CO)[C@@H](O[C@@H]7O[C@@H](C)[C@H](O)[C@@H](O)[C@H]7O)[C@H](O)[C@H]6O[C@@H]6O[C@@H](C)[C@H](O)[C@@H](O)[C@H]6O)C(C)(C)[C@@H]5CC[C@]43C)[C@@H]12`, in series [1], the half-maximal cytotoxic concentration (CC50) amounted to 87.5 µM. For the same compound, in series [3], the EC50 turned out to be 6.5 µM. Moreover, in series [4], the selectivity ratio turned out to be 13.5.

As a reminder, the CC50 is the concentration giving 50% cytotoxicity. The term EC50 denotes the concentration at which the effect is half-maximal. By Kd is commonly meant the equilibrium constant for the complex coming apart.

Values taken from ChEMBL document CHEMBL5370556, “Optimization, and biological evaluation of 3-O-β-chacotriosyl betulinic acid amide derivatives as novel small-molecule Omicron” (Eur J Med Chem, 2023).
